The values below are quoted from earlier work in PMC9165289, “Theranostic PSMA ligands with optimized backbones for intraoperative multimodal imaging and photodynamic therapy of prostate cancer” (European Journal of Nuclear Medicine and Molecular Imaging, 2022).

In general, IC50 refers to the midpoint of a concentration-inhibition curve.

The subject of data set [1] is PSMA. More on the design: method as in PMID 27789722, PMID 29651565. The following applies: reported in the literature; cited from earlier work.
Data set [2] concerns PSMA. Also noted: method as in PMID 27789722, PMID 29651565. As to conditions: reported in the literature; cited from earlier work. This is another data set of the same source.

PSMA-1007: in data set [1], the IC50 was 4.2 ± 0.5 nM. Further, the internalization ratio in data set [2] was 67%.
